From patent publication US10071973B2, “Crystalline isoxazole hydroxamic acid compounds” (priority 2016, dated 2018)
“Also recorded” adds a separate entry of the source. Read-outs that look alike come from different tables or passages of the source.

Experiments:
[1] = Hygroscopicity: mass change with relative humidity / deliquescence; type: physicochemical; details: for hygroscopicity / deliquescence (in words): exposed to air or humidity, amorphous: humidity of about 80% or higher
Description: FIG. 4. Isotherm Plots showing reversible mass changes of Crystalline Compound A over a Relative Humidity range of 0-90%.
Primary soller slit 2.5°; secondary soller slit 2.5°; divergent slit 0.6 mm; antiscatter slit 5.0 mm.

P.A. PAO1 NB52019 = experiment: MIC by broth microdilution (CLSI), P. aeruginosa; type: cell-based; details: Pseudomonas aeruginosa, 35° C., 20 hours
Description: (§1) Bacterial isolates were cultivated from −70° C. frozen stocks by two consecutive overnight passages at 35° C. in ambient air on 5% blood agar (Remel, Lenexa, Kans.). Quality control strain, P. aeruginosa ATCC 27853, A. baumannii ATCC19606 and E. coli ATCC 25922 are from the American Type Culture Collection (ATCC; Rockville, Md.) and PAO1 was received from Dr. K. Poole.
(§2) Minimal Inhibitory Concentrations (MICs) were determined by the broth microdilution method in accordance with Clinical and Laboratories Institute (CLSI) guidelines (CLSI M100-S25, Performance Standards for Antimicrobial Susceptibility Testing; Twenty-fifth Informational Supplement). In brief, fresh bacterial overnight cultures were resuspended in sterile saline, adjusted to a 0.5 McFarland turbidity standard and then diluted 2000-fold in cation adjusted Mueller-Hinton Broth II (MHB; Remel BBL) to yield a final inoculum of approximately 5×10^5 colony-forming units (CFU)/mL. […] Following incubation, assay plates were read in a microtiter plate reader at 600 nm and visually inspected to confirm the MIC endpoint well with the OD value. The lowest concentration of the compound that prevented visible growth was recorded as the MIC. Performance of the assay was monitored by testing ciprofloxacin against the laboratory quality control strain in accordance with guidelines of the CLSI.

A. baumannii ATCC19606 = experiment: MIC by broth microdilution (CLSI), A. baumannii, alone and with rifampicin; type: cell-based; details: Acinetobacter baumannii
Description: as §1, §2

E. coli ATCC 25922 = experiment: MIC by broth microdilution (CLSI), E. coli, alone and with rifampicin; type: cell-based; details: Escherichia coli
Description: as §1, §2

[2] = Stability (colour) of the solid on standing at ambient temperature; type: physicochemical; details: ambient / room temperature, over time
Excerpt: This material required special handling and was not considered suitable for development as a pharmaceutical.

Compound | mass increase (hygroscopicity) ([1]; RH=90%) | hygroscopicity / deliquescence (in words) [1] | mass increase (hygroscopicity) ([1]; relative humidity (RH) of 80%) | MIC (P.A. PAO1 NB52019) | MIC (A. baumannii ATCC19606; broth microdilution, 35° C., 20 hours, read-out: A.B. ATCC 19606 MIC) | MIC (A. baumannii ATCC19606; in presence of 2 μg/ml rifampicin, read-out: A.B. ATCC 19606 (+2 μg/ml RIF) MIC) | MIC (E. coli ATCC 25922; ATCC 25922 / ATCC 29522, in presence of 2 μg/ml rifampicin, read-out: E.C. ATCC 29522 (+2 μg/ml RIF) MIC) | MIC (E. coli ATCC 25922; ATCC25922, broth microdilution, 35° C., 20 hours, read-out: E.C. ATCC 25922 MIC) | colour stability on standing [2]
C[C@@](CCc1cc(C#CC2CC2)on1)(C(=O)NO)S(C)(=O)=O [crystalline Compound (A), (R)-4-(5-(cyclopropylethynyl)isoxazol-3-yl)-N-hydroxy-2-methyl-2-(methylsulfonyl)butanamide] | 3.2% | low hygroscopicity | 1.3% |  |  |  |  |  | 
C[C@@](CCc1cc(C#CC2CC2)on1)(C(=O)NO)S(C)(=O)=O [A, (R)-4-(5-(cyclopropylethynyl)isoxazol-3-yl)-N-hydroxy-2-methyl-2-(methylsulfonyl)butanamide] |  |  |  | 0.25 µg/mL | > 64 µg/mL | 0.125 µg/mL | ≤ 0.06 µg/mL | 2 µg/mL | 
C[C@@](CCc1cc(C#CC2CC2)on1)(C(=O)NO)S(C)(=O)=O [amorphous Compound (A), (R)-4-(5-(cyclopropylethynyl)isoxazol-3-yl)-N-hydroxy-2-methyl-2-(methylsulfonyl)butanamide] |  | significantly deliquescent |  |  |  |  |  |  | developed a brownish color over time; also recorded: tended to darken on standing at ambient temperature
